Entries after “also recorded” stand apart in the source; their conditions may differ.
Tests used:
[1] = test system: LC3B, p62/SQSTM-1 and LAMP2 in GSC M83 and JK83 cells; assay: Immunoblot of autophagy markers (LC3B, p62, LAMP2) in GSCs treated with AZD2014 and NSC; format: cell-based; details: NSC in the presence of AZD2014
Procedure: (§1) FIG. 5. A mTORC1/2 inhibitor AZD2014 inhibited cell survival, mTORC1 and mTORC2 activities in GSCs and glioma cells. (A) GSC M83 and JK83 and glioma cells U87 were treated with indicated concentration of AZD2014 for 72 h, then cell viability was evaluated. (B) GSC M83 and JK83 were treated with the indicated concentration of AZD2014 for 1 hr, or with 2 μM AZD2014 for the specified time. Cells were collected for immunoblot analysis. β-actin was used as a loading control; Results are representative of 2 independent experiments. *P<0.05, **P<0.01, paired two-way Student's t-test. Data are representative from three independent experiments with similar results.
FIG. 6. NSC enhanced the cytotoxicity of a mTORC1/2 inhibitor AZD2014 in GSCs. (A) GSC M83 and JK83 were exposed to DMSO control vs AZD2014 vs NSCs vs AZD2014 in combination with NSC for 72 hr. Cells were collected for immunoblot analysis using indicated antibodies. (B) Immunofluorescence analyses for LC3B puncta in GSC M83 and JK83 cells with indicated treatments. (C and D) GSC M83 and JK83 and/or neural progenitor cells (NPC) were treated as indicated in (A), cell viability was tested at 72 h after treatment (C), and cell apoptosis was measured by Annexin V FACS assay 48 h after treatment. Data are representative from three independent experiments with similar results. […]

[2] = test system: GSC JK83 orthotopic xenografts; assay: GSC JK83 orthotopic brain tumor xenograft model (survival, BLI, tissue staining); format: in vivo, mice
Source text: FIG. 7. NSC enhance anticancer efficacy of AZD2014 in a patient-derived GSC xenograft model. […] Treatments were started at one week post-implantation. Bioluminescent (BLI) images were taken after the last treatment, and representative images are shown. Scale bar, photons/sec/cm2/steradian. (B) Kaplan-Meier of mice bearing GSC JK83 orthotopic xenografts with indicated treatments. (C) The brains of mice bearing orthotopic xenografts with indicated treatments were collected for immunohistochemical evaluation using indicating antibody. *P<0.05, **p<0.01, […]. Data are representative from three independent experiments with similar results.
Frozen brain tissue sections with GBM xenografts were dried and then fixed in were fixed in 4% paraformaldehyde (PFA) in PBS for 5 minutes. Tissue sections were blocked with AquaBlock (East Coast Bio, North Berwick, Me.) for an hour and then were probed with appropriate primary antibodies 4° C. overnight. Tissue sections were incubated with Alexa 488 or 594 labelled secondary antibodies (1:200) and DAPI-containing mounting solution Vectashield (Vector Laboratories), and representative images were photographed using a Nikon inverted microscope Eclipse Ti-U equipped with a digital camera.
To determine whether the enhancement of AZD2014 therapeutic efficiency by combination with NSC measured in vitro extends to an orthotopic model, GSC JK83 glioma spheres were employed to initiate intracerebral xenografts in mice.

[3] = test system: mTORC1 and mTORC2 activity in GSC M83 and JK83 cells; assay: Immunoblot of mTORC1 and mTORC2 activity in GSCs; format: cell-based
Procedure: as §1
(§2) FIG. 6. NSC enhanced the cytotoxicity of a mTORC1/2 inhibitor AZD2014 in GSCs. (A) GSC M83 and JK83 were exposed to DMSO control vs AZD2014 vs NSCs vs AZD2014 in combination with NSC for 72 hr. Cells were collected for immunoblot analysis using indicated antibodies. (B) Immunofluorescence analyses for LC3B puncta in GSC M83 and JK83 cells with indicated treatments. (C and D) GSC M83 and JK83 and/or neural progenitor cells (NPC) were treated as indicated in (A), cell viability was tested at 72 h after treatment (C), and cell apoptosis was measured by Annexin V FACS assay 48 h after treatment. Data are representative from three independent experiments with similar results.
IB assays were performed as previously described (Huang et al., 2016b). Specific antibodies were used according to the manufacturer's instructions: LC3B (#3868S), pAKT (Ser473; 4060), pAKT(Thr308; 4056), AKT (4691), pS6(S235/236; 2211), S6 (2317), phosphorylated 4E-binding protein 1 (p4EBP1) (Thr37/46; 2855), 4EBP1 (9644), p-mTOR (Ser2448; 2971S), p-mTOR (Ser2481; 2974S), mTOR (2972S), pULK1(Ser317; 14202T), pULK1 (Ser757; 8054T), ULK1(6439), LAMP2 (49067S) were from Cell Signaling Technology. Anti-β-actin (SC-47778) and anti-SQSTM1/p62 (SC-28359) antibodies were from Santa Cruz Biotechnology. An anti-Ki-67 antibody (AB9260) was from EMD Millipore.
(§3) mTOR kinases are crucial regulators of glioma cell growth, proliferation and survival (Akhavan et al., 2010). […] A strong inhibition was achieved by 1 μM with complete block of mTORC1/2 activities at 2 μM (FIG. 5B).
(§4) Since autophagy activation is considered as a cytoprotective factor that contribute to tumor survival when challenged by therapies, it is proposed that block of autophagy activation by NSC would further enhanced the cytotoxicity of dual TORC1/2 inhibitor AZD2014.

[4] = test system: LC3B puncta in GSC M83 and JK83 cells; assay: LC3B immunofluorescence (puncta, autophagosomes); format: cell-based; details: NSC in cells treated with AZD2014
Procedure: as §2
Immunofluorescent staining. GSCs were seeded onto LabTek CC2-treated tissue culture slides (Thermo Fisher) and cultured for 24 hours. Cells were then fixed with 4% formaldehyde (Fisher) for 15 min, and permeabilized with 0.1% Triton X-100, and then blocked with AquaBlock (East Coast Bio, North Berwick, Me.) for 60 minutes. The slides were incubated with indicated primary antibodies according to the manufacturer's instructions. After being washed for three times with PBS-T, cells were incubated with secondary antibody (Alexa 488 and 594, 1:200) and DAPI-containing mounting solution Vectashield (Vector Laboratories). Cells were analyzed on a Nikon inverted microscope Eclipse Ti-U equipped with a digital camera. […]

U87 cells = assay: Cell viability assay, AZD2014, 72 h; format: cell-based
Procedure: as §1
Glioma cells U87 (from ATCC) were cultured in DMEM (Invitrogen) supplemented with 10% FBS and 1% penicillin and streptomycin. Neural progenitor cells were cultured in NPBM Neural Progenitor Basal medium supplemented with hEGF, hFGF, NSF-1 and GA (Lonza, Cat #: cc-3210, cc-4241 and cc-4242). […]
GSCs with single or combined treatments were cultured for 72 hours in 96-well plates at 2,000 cells per well. Cell viabilities were determined using CellTiter-Glow 2.0 Assay (Promega). […]

GSC JK83 and M83 = assay: Cell viability assay, AZD2014 and NSC, 72 h; format: cell-based
Procedure: as §1, §2
GSCs with single or combined treatments were cultured for 72 hours in 96-well plates at 2,000 cells per well. Cell viabilities were determined using CellTiter-Glow 2.0 Assay (Promega).
as §3, §4

[5] = test system: intracranial GBM6FL TMZ res xenografts; assay: Intracranial PDX GBM6FL temozolomide resistant xenograft model; format: in vivo, mice; details: compared to vehicle-treated brain xenografts
Source text: FIG. 8. Combination therapy of autophagy inhibitor NSC185058 (NSC) with IR+TMZ suppressed growth of intracranial GBM6FL temozolomide (TMZ) resistant (res) xenografts. […] Mice were imaged at the indicated day after the implantation, and representative BLI images are shown. (B) Changes in the body weight of the mice in each respective treatment groups. (C, D) Effects of NSC, IR, TMZ and the indicated combinations on GBM6FL TMZ res orthotopic xenografts in mice. The luminescence of xenograft tumors formed by indicated treatment. **p<0.01 compared to vehicle controls. Colored scale bars represent photons/s/cm2/steradian. (E, F) Kaplan-Meier (E) and log-rank p value analyses (F) of mice bearing GBM6FL TMZ res orthotopic xenografts with indicated treatments. First and second IR+TMZ+NSC tri-treatments were started at day 7 and day 35 post-implantation, respectively.
GBM6FL TMZ res orthotopic xenograft model was recently established by Dr. Charles David James at Northwestern University as intracranial GBM xenografts after three runs of TMZ treatments and subsequent passages in the flanks of mice.

Structure (SMILES)	autophagy markers (LC3B conversion, p62 and LAMP2 degradation) [1]	levels of p-4EBP1 and p-AKT in tumor tissues ([2]; AZD2014 alone or in combination with NSC vs control)	mouse survival ([2]; NSC (100 mg/kg), AZD2014 (50 mg/kg), alone or combined, vs control)	mTOR signaling and ULK1 phosphorylation ([3]; GSC83 and JK83 cells, 72 hr)	concentration giving complete block of mTORC1/2 activities ([3]; GSC M83 and JK83) [µM]	concentration giving strong inhibition of mTORC1/2 activities ([3]; GSC M83 and JK83) [µM]	time by which inhibition of mTORC1 and mTORC2 was detectable ([3]; GSC M83 and JK83, 2 μM AZD2014) [h]	inhibition of p-S6, p-4EBP1, p-AKT (Ser473) ([3]; GSC M83 and JK83, 1 hr)	autophagosomes number (LC3 B immunofluorescence) [4]	concentration at which cell viability was significantly decreased (U87 cells) [µM]	cell viability (GSC JK83 and M83; 72 h, combination compared with monotherapy, AZD2014 alone)	concentration at which cell viability was significantly decreased (GSC JK83 and M83; GSC JK83 and M83, 72 h) [µM]	inhibition efficiency on GSCs compared with glioma cells (GSC JK83 and M83; same concentration of AZD2014, GSCs vs U87)	response of xenografts to TMZ treatments [5]
CNC(=O)c1cccc(-c2ccc3c(N4CCOC[C@@H]4C)nc(N4CCOC[C@@H]4C)nc3n2)c1 [AZD2014, vistusertib]	increased LC3-II conversion (LC3B-II/I ratio) and p62/SQSTM-1 degradation; also recorded: induced autophagic influx by inducing LC3B lipidation and degradation of p62 and LAMP2	significantly reduced in the levels of p-4EBP1 and p-AKT	modest but significant effects on mouse survival	inhibited mTOR induced p-52448/81-mTOR, p-S473-Akt, p-S6, p-S757-ULK1	2	1	≤ 2	dose-dependently inhibited p-S6, p-4EBP1, and p-AKT (Ser473)	increase of autophagosomes number	0.1	displayed inhibitor effects on GBM cell viability	1	significantly lower than glioma cells	–
Cn1nnc2c(C(N)=O)ncn2c1=O [TMZ, temozolomide]	–	–	–	–	–	–	–	–	–	–	–	–	–	no response

Source: patent US11793816B2, “Methods for enhancing cytotoxic cancer therapy through inhibition of ATG4B” (Northwestern University, priority 2019, dated 2023)
